# Data from patent US10138466B2, “Compositions and methods for differentiating stem cells into cell populations comprising beta-like cells” (REGENERATIVE MEDICAL SOLUTIONS, INC., priority 2014, dated 2018).
# What was measured:
# T cell = details: high concentrations (1 μg/mL), murine models of T1D; cited from earlier work
# NKX6.1 expression = assay: EGF at stage 5 of differentiation, NKX6.1 expression; type: cell-based, human; details: Ten to fifty ng/ml EGF at stage 5
# Method: EGF was added at stage 5.
# [1] = tested on: iPS derived beta-cell clusters; assay: Response of iPS derived beta-cell clusters to tolbutamide; type: cell-based, human
# Method: Experiments were conducted to determine the effect of shipping induced islet cells on Transwells. Cells were differentiated according to the protocol described in Example 15. (ProgenMixIII). Total differentiation time was 27 days and the final product was islet-like-clusters (ILCs) in suspension. On the day of shipment, ILCs were counted and divided into individual mouse dosages: one mouse dosage per bottle. Cells were sent by FedEx overnight at 4° C. using cold packs. Leftover ILCs from shipment were used as controls.
# Results are shown in FIGS. 36-42. iPS derived beta-cell clusters responded to glucose challenge and tolbutamide, a KATP channel closer.
# differentiated cells = assay: GSIS test of differentiated cells with Warfarin in stage 6 medium; type: cell-based, human
# Method: 300 ng/ml Noggin was added in step 4 and 10 uM ALK5i was added in step 5. In the final step, cells were transferred from transwell to suspension culture (in low attachment wells or flasks). […]
# Warfarin was added at stage 6.
molecule,measurement,setting,value
"CXCL12: immune modulating chemokine, T-cell chemorepellent",action on T cells,T cell,T cell chemorepellent
EGF: growth factor added at stage 5 of differentiation,NKX6.1 expression at end,NKX6.1 expression,enhance NKX6.1 expression
CCCCNC(=O)NS(=O)(=O)c1ccc(C)cc1 [tolbutamide],"response to tolbutamide, a KATP channel closer",[1],responded
CC(=O)CC(c1ccccc1)c1c(O)c2ccccc2oc1=O (stereo not drawn) [Warfarin],SI (stimulation index) in GSIS test,differentiated cells; 2 uM Warfarin in stage 6,3.0
same,SI (stimulation index) in GSIS test,differentiated cells; 5 uM Warfarin in stage 6,3.8
same,stimulation index in GSIS test,differentiated cells; warfarin in the final media,significantly increased
